Measurements reported in patent US8173654B2, “Triazolopyridazine compounds” (Janssen Pharmaceutica N.V., priority 2005, dated 2012).

Assays:
c-Met [1] = target: T1, c-Met (Homo sapiens, UniProt P08581); assay: Cell based ELISA assay for HGF stimulated c-Met phosphorylation in S114 cells; design: expressed in transfected cells; host or cells: S114 (murine NIH 3T3 derived); conditions: read-out: c-Met Cell ELISA IC-50
Procedure: A cell based ELISA assay was developed to evaluate the ability of compounds to inhibit HGF stimulated c-Met phosphorylation in cells.
S114 cells were seeded to a 96 well tissue culture treated dish at a concentration of 5×10^4 per well. After a 16-20 hour incubation, culture medium was removed and replaced with serum free medium supplemented with 0.5% BSA. Test compound was then added and incubated with the cells for 60 minutes, followed by the addition of 1 μl HGF at […] for 15 minutes. […] Following another 1 hour incubation at room temperature the plates were washed three times with Delfia wash buffer (Perkin Elmer). After the final wash, […] of Delfia enhancer solution (Perkin Elmer) was added and allowed to incubate for 60 minutes. Plates were read on an LJL Analyst instrument (Molecular Devices; Sunnyvale, Calif.) with filter settings of 360 excitation, 620 emission, and 410 dichroic. IC50 values were calculated using Graphpad Prism software (Graphpad Software; San Diego, Calif.).
Target sequence in this assay (P08581 25-1390): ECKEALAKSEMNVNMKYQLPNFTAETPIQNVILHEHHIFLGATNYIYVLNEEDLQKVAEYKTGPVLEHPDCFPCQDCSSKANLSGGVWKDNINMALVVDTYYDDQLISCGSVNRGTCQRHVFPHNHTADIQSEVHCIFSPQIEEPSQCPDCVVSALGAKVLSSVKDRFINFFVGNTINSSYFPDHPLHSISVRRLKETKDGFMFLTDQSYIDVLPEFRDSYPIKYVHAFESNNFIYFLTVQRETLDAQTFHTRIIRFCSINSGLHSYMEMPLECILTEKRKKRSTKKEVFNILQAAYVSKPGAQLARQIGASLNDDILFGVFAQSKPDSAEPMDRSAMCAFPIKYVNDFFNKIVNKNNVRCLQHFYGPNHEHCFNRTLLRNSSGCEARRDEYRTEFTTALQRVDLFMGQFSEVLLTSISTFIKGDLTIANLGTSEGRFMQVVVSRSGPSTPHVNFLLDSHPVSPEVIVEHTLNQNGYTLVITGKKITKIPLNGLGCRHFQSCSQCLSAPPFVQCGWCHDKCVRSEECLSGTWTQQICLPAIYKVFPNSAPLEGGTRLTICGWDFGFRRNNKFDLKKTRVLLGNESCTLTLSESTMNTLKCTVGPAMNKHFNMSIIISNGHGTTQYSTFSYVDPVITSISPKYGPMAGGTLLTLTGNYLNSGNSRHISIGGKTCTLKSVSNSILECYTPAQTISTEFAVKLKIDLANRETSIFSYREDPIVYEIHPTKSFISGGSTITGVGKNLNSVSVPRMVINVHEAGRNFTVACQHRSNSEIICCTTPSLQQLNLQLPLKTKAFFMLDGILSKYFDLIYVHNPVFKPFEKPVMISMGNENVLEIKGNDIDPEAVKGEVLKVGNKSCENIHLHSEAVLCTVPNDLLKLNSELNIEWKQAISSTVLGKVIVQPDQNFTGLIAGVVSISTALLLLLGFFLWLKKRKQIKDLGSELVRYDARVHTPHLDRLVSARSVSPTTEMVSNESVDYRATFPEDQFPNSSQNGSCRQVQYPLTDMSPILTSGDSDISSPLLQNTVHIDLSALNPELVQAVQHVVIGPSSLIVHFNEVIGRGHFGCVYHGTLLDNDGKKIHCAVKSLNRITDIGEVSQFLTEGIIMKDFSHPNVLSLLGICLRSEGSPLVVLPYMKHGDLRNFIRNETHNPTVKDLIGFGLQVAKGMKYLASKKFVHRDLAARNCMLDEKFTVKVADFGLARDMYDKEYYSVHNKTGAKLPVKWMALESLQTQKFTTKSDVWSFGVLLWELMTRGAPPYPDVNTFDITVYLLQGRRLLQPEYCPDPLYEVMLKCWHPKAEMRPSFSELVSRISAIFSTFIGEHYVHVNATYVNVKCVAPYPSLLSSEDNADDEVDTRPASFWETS

c-Met [2] = target: T1, c-Met; assay: Delfia autophosphorylation kinase assay on the c-Met; assay type: biochemical; design: The purified His6 tagged cytoplasmic domain of c-Met was diluted to a concentration of 500 ng/ml; host or cells: Sf9 insect cells (baculovirus, pFastBacHTa); conditions: His6 tagged cytoplasmic domain of c-Met, 1 μM ATP; read-out: cMet Delfia autophos IC-50
Procedure: A DELFIA time resolved fluorescence assay was developed for screening of compounds that decreases the autophosphorylation thus the kinase activity of c-Met. The DELFIA assay is non-radioactive. The autophosphorylation of the c-Met is measured by an anti-phosphotyrosine antibody coupled to an Europium tag.
A major advantage of this format is that it allowed for the development of an autophosphorylation assay using Ni-chelate plates which bind the hexa-his tag on the recombinant Met kinase. The autophosphorylation assay allows one to use a known substrate, Met kinase itself, for the phosphorylation.
The assay procedure for screening is as follows. The purified His6 tagged cytoplasmic domain of c-Met was diluted to a concentration of 500 ng/ml in enzyme dilution buffer (50 mM Tris-HCl, pH8.0, 0.1% BSA) and dispensed to assay plates at a volume of 50 μl per well. Black opaque HisGrab Nickel coated 96 well plates (Pierce, Rockford, Ill.) were selected for use. Next, 2.5 μl of compound in 40% DMSO was added to test wells, 2.5 μl of 40% DMSO only was added to the negative control wells. The autophosphorylation reaction was initiated upon the addition of 50 μl of reaction buffer, 50 mM Tris-HCl, pH 8.0, 10 mM MgCl2, 0.1 mM Na3VO4, 1 mM DTT, 1 μM ATP. Plates were incubated at room temperature for 1 hour followed by 2 washes with 200 μl/well of PBS. Europium conjugated anti-phosphotyrosine antibody, Eu-PY20 from Perkin Elmer was diluted to 50 ng/ml in Delfia AB buffer (Perkin Elmer, Boston, Mass.), added to the 96 well assay plates at a volume of 100 μl/well, and incubated at room temperature for 2 hours. Assay plates were then washed 4 times each with 200 μl/well of Delfia wash buffer (Perkin Elmer). After the final wash 150 μl of Delfia Enhancement solution (Perkin Elmer) was added to each well of the assay plate and incubated at room temperature for 1 hour. Plates were read on an LJL Analyst instrument (Molecular Devices; Sunnyvale, Calif.) with filter settings of 360 excitation, 620 emission, and 410 dichroic. IC50 values were calculated using Graphpad Prism software (Graphpad Software; San Diego, Calif.).
Target sequence in this assay (P08581 956-1390 limits assumed): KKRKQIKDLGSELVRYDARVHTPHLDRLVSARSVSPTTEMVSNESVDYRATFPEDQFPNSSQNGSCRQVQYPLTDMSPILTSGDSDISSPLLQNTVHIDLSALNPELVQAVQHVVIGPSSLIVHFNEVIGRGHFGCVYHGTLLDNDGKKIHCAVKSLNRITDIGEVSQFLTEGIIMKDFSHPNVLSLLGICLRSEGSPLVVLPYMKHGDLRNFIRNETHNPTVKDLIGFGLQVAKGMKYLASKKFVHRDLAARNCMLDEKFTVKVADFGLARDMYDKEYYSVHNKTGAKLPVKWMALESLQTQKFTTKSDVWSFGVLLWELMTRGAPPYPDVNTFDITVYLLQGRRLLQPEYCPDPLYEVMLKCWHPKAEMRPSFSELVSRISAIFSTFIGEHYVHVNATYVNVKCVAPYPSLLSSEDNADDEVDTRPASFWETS

SMILES	IC50 (c-Met [1])	IC50 (c-Met [2])
CS(=O)(=O)N1CCN(C(=O)c2ccc(-c3ccc4nnc(Cc5ccc6ncccc6c5)n4n3)s2)CC1 [Example 56, (4-Methanesulfonyl-piperazin-1-yl)-[5-(3-quinolin-6-ylmethyl-[1,2,4]triazolo[4,3-b]pyridazin-6-yl)-thiophen-2-yl]-methanone]	0.023 µM	0.0009 µM
N#Cc1cc(-c2ccc3nnc(C(F)(F)c4ccc5ncccc5c4)n3n2)ccn1 [Example 101, 4-[3-(Difluoro-quinolin-6-yl-methyl)-[1,2,4]triazolo[4,3-b]pyridazin-6-yl]-pyridine-2-carbonitrile]	0.12 µM	0.001 µM
Clc1ccc(-c2ccc3nnc(Cc4ccc5ncccc5c4)n3n2)s1 [Example 77]	0.002 µM	0.0015 µM
Clc1cc(Cc2nnc3ccc(-c4cccnc4)nn23)ccn1 [Example 14, 3-(2-Chloro-pyridin-4-ylmethyl)-6-pyridin-3-yl-[1,2,4]triazolo[4,3-b]pyridazine]	–	> 10 µM
Cc1nc2ccc(Cc3nnc4ccc(-c5cnn(C)c5)nn34)cc2s1 [Example 82, 3-(2-Methyl-benzothiazol-6-ylmethyl)-6-(1-methyl-1H-pyrazol-4-yl)-[1,2,4]triazolo[4,3-b]pyridazine]	–	0.017 µM
N#Cc1cncc(-c2ccc3nnc(Cc4ccc5ncccc5c4)n3n2)c1 [Example 83, 5-(3-Quinolin-6-ylmethyl-[1,2,4]triazolo[4,3-b]pyridazin-6-yl)-nicotinonitrile]	–	0.014 µM
O=c1ccc(Cc2nnc3ccc(-c4cccs4)nn23)c[nH]1 [Example 32, 5-(6-Thiophen-2-yl-[1,2,4]triazolo[4,3-b]pyridazin-3-ylmethyl)-1H-pyridin-2-one]	–	0.305 µM
FC(F)(c1ccc2ncccc2c1)c1nnc2ccc(-c3cccs3)nn12 [Example 57, 6-[Difluoro-(6-thiophen-2-yl-[1,2,4]triazolo[4,3-b]pyridazin-3-yl)-methyl]-quinoline]	–	0.0003 µM
c1ccc(Cc2nnc3ccc(-c4cccs4)nn23)cc1 [Example 24, 3-Benzyl-6-thiophen-2-yl-[1,2,4]triazolo[4,3-b]pyridazine]	–	1.78 µM
O=C(c1ccc(-c2ccc3nnc(Cc4ccc5ncccc5c4)n3n2)s1)N1CCS(=O)(=O)CC1 [Example 54, (1,1-Dioxo-1λ6thiomorpholin-4-yl)-[5-(3-quinolin-6-ylmethyl-[1,2,4]triazolo[4,3-b]pyridazin-6-yl)-thiophen-2-yl]-methanone]	0.006 µM	–
c1cc2c(cc1Cc1nnc3ccc(-c4ccc(CN5CCOCC5)o4)nn13)CCO2 [Example 40, 3-(2,3-Dihydro-benzofuran-5-ylmethyl)-6-(5-morpholin-4-ylmethyl-furan-2-yl)-[1,2,4]triazolo[4,3-b]pyridazine]	–	1.08 µM
c1csc(-c2ccc3nnc(Cc4ccc5sccc5c4)n3n2)c1 [Example 36, 3-Benzo[b]thiophen-5-ylmethyl-6-thiophen-2-yl-[1,2,4]triazolo[4,3-b]pyridazine]	–	2.7 µM
O=C(c1cncc(-c2ccc3nnc(Cc4ccc5ncccc5c4)n3n2)c1)N1CCOCC1 [Example 10, Morpholin-4-yl-[5-(3-quinolin-6-ylmethyl-[1,2,4]triazolo[4,3-b]pyridazin-6-yl)-pyridin-3-yl]-methanone]	–	0.217 µM
Oc1ccc(Cc2nnc3ccc(-n4ccnc4)nn23)cc1 [Example 45, 4-(6-Imidazol-1-yl-[1,2,4]triazolo[4,3-b]pyridazin-3-ylmethyl)-phenol]	–	0.07 µM
c1cnc2ccc(Cc3nnc4ccc(-c5ccc6[nH]ccc6c5)nn34)cc2c1 [Example 84, 6-[6-(1H-Indol-5-yl)-[1,2,4]triazolo[4,3-b]pyridazin-3-ylmethyl]-quinoline]	0.0009 µM	–
Nc1nc2ccc(Cc3nnc4ccc(-c5cccs5)nn34)cc2o1 [Example 21, 6-(6-Thiophen-2-yl-[1,2,4]triazolo[4,3-b]pyridazin-3-ylmethyl)-benzooxazol-2-ylamine]	–	0.023 µM

SMILES	IC50 (c-Met [1])	IC50 (c-Met [2])
Nc1ccc(Cc2nnc3ccc(-c4cccs4)nn23)cc1 [Example 28, 4(6-Thiophen-2-yl-[1,2,4]triazolo[4,3-b]pyridazin-3-ylmethyl)-phenylamine]	–	1.9 µM
O=[N+]([O-])c1ccc(Cc2nnc3ccc(-c4cccs4)nn23)cc1 [Example 27, 3-(4-Nitro-benzyl)-6-thiophen-2-yl-[1,2,4]triazolo[4,3-b]pyridazine]	–	8.21 µM
COc1cnccc1-c1ccc2nnc(Cc3ccc4c(c3)CCO4)n2n1 [Example 41, 3-(2,3-Dihydro-benzofuran-5-ylmethyl)-6-(3-methoxy-pyridin-4-yl)-[1,2,4]triazolo[4,3-b]pyridazine]	–	0.056 µM
[O-][n+]1ccc(Cc2nnc3ccc(-c4cccs4)nn23)cc1 [Example 34, 3-(1-Oxy-pyridin-4-ylmethyl)-6-thiophen-2-yl-[1,2,4]triazolo[4,3-b]pyridazine]	–	1.19 µM
c1cncc(-c2ccc3nnc(Cc4ccc5ncnn5c4)n3n2)c1 [Example 12, 6-Pyridin-3-yl-3-[1,2,4]triazolo[1,5-a]pyridin-6-ylmethyl-[1,2,4]triazolo[4,3-b]pyridazine]	–	0.056 µM
Clc1ccc2cc(Cc3nnc4ccc(-c5cccnc5)nn34)ccc2n1 [Example 67, 2-Chloro-6-(6-pyridin-3-yl-[1,2,4]triazolo[4,3-b]pyridazin-3-ylmethyl)-quinoline]	–	0.9 µM
c1cc2c(cc1Cc1nnc3ccc(-c4ccc(N5CCOCC5)nc4)nn13)CCO2 [Example 8, 3-(2,3-Dihydro-benzofuran-5-ylmethyl)-6-(6-morpholin-4-yl-pyridin-3-yl)-[1,2,4]triazolo[4,3-b]pyridazine]	–	0.243 µM
CC(=O)Nc1ccc(Cc2nnc3ccc(-c4cccs4)nn23)cc1 [Example 29, N-[4(6-Thiophen-2-yl-[1,2,4]triazolo[4,3-b]pyridazin-3-ylmethyl)-phenyl]-acetamide]	–	0.086 µM
Cn1cc(-c2ccc3nnc(Cc4ccc5c(ccc[n+]5[O-])c4)n3n2)cn1 [Example 63, 6-[6-(1-Methyl-1H-pyrazol-4-yl)-[1,2,4]triazolo[4,3-b]pyridazin-3-ylmethyl]-quinoline 1-oxide]	–	0.6 µM
Oc1ccc(Cc2nnc3ccc(-n4cccn4)nn23)cc1 [Example 46, 4-(6-Pyrazol-1-yl-[1,2,4]triazolo[4,3-b]pyridazin-3-ylmethyl)-phenol]	–	0.227 µM
Fc1ccc(Cc2nnc3ccc(-c4cccs4)nn23)cc1 [Example 26, 3-(4-Fluoro-benzyl)-6-thiophen-2-yl-[1,2,4]triazolo[4,3-b]pyridazine]	–	0.413 µM
CCNC(=O)Nc1ccc(Cc2nnc3ccc(-c4cccs4)nn23)cc1 [Example 30, 1-Ethyl-3-[4-(6-thiophen-2-yl-[1,2,4]triazolo[4,3-b]pyridazin-3-ylmethyl)-phenyl]-urea]	–	0.57 µM
c1cnc2ccc(Cc3nnc4ccc(-c5ccc6nn[nH]c6c5)nn34)cc2c1 [Example 78, 6-[6-(3H-Benzotriazol-5-yl)-[1,2,4]triazolo[4,3-b]pyridazin-3-ylmethyl]-quinoline]	–	0.32 µM
c1cncc(-c2ccc3nnc(Cc4cccc5ncccc45)n3n2)c1 [Example 91, 5-(6-Pyridin-3-yl-[1,2,4]triazolo[4,3-b]pyridazin-3-ylmethyl)-quinoline]	–	1.05 µM
c1ccc(-c2ccc3nnc(Cc4ccc5c(c4)CCO5)n3n2)nc1 [Example 19, 3-(2,3-Dihydro-benzofuran-5-ylmethyl)-6-pyridin-2-yl-[1,2,4]triazolo[4,3-b]pyridazine]	–	0.172 µM
